For this assay, the target named is T1, hSTING (Homo sapiens, UniProt Q86WV6, G230A/H232R/R293Q/R71H).
T1 construct: host or cells: THP1-Dual KO-IFNAR2 cells
The assay is described as follows: STING reporter assay in THP1-Dual KO-IFNAR2 cells (2'3'cGAMP stimulation, luciferase reporter). The format is cell-based. The conditions noted are these: 15 μM 2'3'cGAMP, 24 h, class symbols. How it is done: STING pathway activation by the compounds described herein was measured using THP1-Dual™ cells (KO-IFNAR2).
THP1-Dual™ KO-IFNAR2 Cells (obtained from invivogen) were maintained in RPMI, 10% FCS, 5 ml P/S, 2 mM L-glut, 10 mM Hepes, and 1 mM sodium pyruvate. Compounds were spotted in empty 384 well tissue culture plates (Greiner 781182) by Echo for a final concentration of 0.0017-100 μM. Cells were plated into the TC plates at 40 μL per well, 2×10E6 cells/mL. For activation with STING ligand, 2′3′cGAMP (MW 718.38, obtained from Invivogen), was prepared in Optimem media.
The following solutions were prepared for each 1×384 plate: • Solution A: 2 mL Optimem with one of the following stimuli: • 60 μL of 10 mM 2′3′cGAMP→150 μM stock • Solution B: 2 mL Optimem with 60 μL Lipofectamine 2000→Incubate 5 min at RT
2 mL of solution A and 2 ml Solution B was mixed and incubated for 20 min at room temperature (RT). 20 μL of transfection solution (A+B) was added on top of the plated cells, with a final 2′3′cGAMP concentration of 15 μM. The plates were then centrifuged immediately at 340 g for 1 minute, after which they were incubated at 37° C., 5% CO2, >98% humidity for 24 h. Luciferase reporter activity was then measured. EC50 values were calculated by using standard methods known in the art.
Luciferase reporter assay: 10 μL of supernatant from the assay was transferred to white 384-plate with flat bottom and squared wells. One pouch of QUANTI-Luc™ Plus was dissolved in 25 mL of water. 100 μL of QLC Stabilizer per 25 mL of QUANTI-Luc™ Plus solution was added. 50 μL of QUANTI-Luc™ Plus/QLC solution per well was then added. Luminescence was measured on a Platereader (e.g., Spectramax I3X (Molecular Devices GF3637001)).
Luciferase reporter activity was then measured. EC50 values were calculated by using standard methods known in the art.
(In general: In a reporter assay the amount or activity of a reporter protein is the signal.)

T1 sequence (Q86WV6 whole entry R71H/G230A/H232R/R293Q): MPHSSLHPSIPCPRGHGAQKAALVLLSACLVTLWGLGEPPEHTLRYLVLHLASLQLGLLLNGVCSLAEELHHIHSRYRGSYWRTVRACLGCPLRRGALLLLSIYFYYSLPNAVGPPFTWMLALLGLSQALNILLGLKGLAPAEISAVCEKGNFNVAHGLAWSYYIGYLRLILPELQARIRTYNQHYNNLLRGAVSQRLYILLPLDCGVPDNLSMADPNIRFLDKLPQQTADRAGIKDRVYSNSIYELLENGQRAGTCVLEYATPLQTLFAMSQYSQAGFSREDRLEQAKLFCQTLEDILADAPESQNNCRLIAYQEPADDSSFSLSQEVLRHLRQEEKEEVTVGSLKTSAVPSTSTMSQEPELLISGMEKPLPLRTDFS

Compound `N#Cc1cc(Nc2cc(Cl)cc(OC(F)(F)F)c2)cc(Nc2ccc3cc[nH]c3c2)n1` [Compound 134, 4-{[3-chloro-5-(trifluoromethoxy)phenyl]amino}-6-[(1H-indol-6-yl)amino]pyridine-2-carbonitrile] returned an EC50 of 200 to 1000 nM. For the compound `N#Cc1cc(Cl)cc(Nc2cc(C#N)nc(Nc3ccc4cc[nH]c4c3)c2)c1` [Compound 135, 4-[(3-chloro-5-cyanophenyl)amino]-6-[(1H-indol-6-yl)amino]pyridine-2-carbonitrile], the EC50 was 200 to 1000 nM.

The compound `N#Cc1cc(Nc2cc(Cl)cc(Cl)c2)cc(Nc2ccc3cc[nH]c3c2)n1` [Compound 136, 4-[(3,5-dichlorophenyl)amino]-6-[(1H-indol-6-yl)amino]pyridine-2-carbonitrile] showed an EC50 of 200 to 1000 nM.

`N#Cc1cc(Nc2cc(F)cc(F)c2)cc(Nc2ccc3cc[nH]c3c2)n1` [Compound 137, 4-[(3,5-difluorophenyl)amino]-6-[(1H-indol-6-yl)amino]pyridine-2-carbonitrile]: the EC50 was in the range of 200 to 1000 nM. `N#Cc1cc(Nc2ccc(Cl)c(Cl)c2)cc(Nc2ccc3cc[nH]c3c2)n1` [Compound 138, 4-[(3,4-dichlorophenyl)amino]-6-[(1H-indol-6-yl)amino]pyridine-2-carbonitrile] had an EC50 of 200 to 1000 nM. `N#Cc1cc(Nc2ccc(Cl)c(F)c2)cc(Nc2ccc3cc[nH]c3c2)n1` [Compound 139, 4-[(4-chloro-3-fluorophenyl)amino]-6-[(1H-indol-6-yl)amino]pyridine-2-carbonitrile] registered an EC50 of 200 to 1000 nM. The figure for `N#Cc1cc(Nc2ccc(F)c(Cl)c2)cc(Nc2ccc3cc[nH]c3c2)n1` [Compound 140, 6-((1H-indol-6-yl)amino)-4-((3-chloro-4-fluorophenyl)amino)picolinonitrile] is 200 to 1000 nM. The figure for `N#Cc1cc(Nc2cncc(C(F)(F)F)c2)cc(Nc2ccc3cc[nH]c3c2)n1` [Compound 141, 6-[(1H-indol-6-yl)amino]-4-{[5-(trifluoromethyl)pyridin-3-yl]amino}pyridine-2-carbonitrile] is 200 to 1000 nM; for `N#Cc1cc(Nc2ccc3c(c2)CCC3)cc(Nc2ccc3cc[nH]c3c2)n1` [Compound 142, 4-[(2,3-dihydro-1H-inden-5-yl)amino]-6-[(1H-indol-6-yl)amino]pyridine-2-carbonitrile] it is 200 to 1000 nM; for `N#Cc1cc(Nc2ccc3c(c2)OC(F)(F)C(F)(F)O3)cc(Nc2ccc3cc[nH]c3c2)n1` [Compound 143, 6-((1H-indol-6-yl)amino)-4-((2,2,3,3-tetrafluoro-2,3-dihydrobenzo[b][1,4]dioxin-6-yl)amino)picolinonitrile] it is 200 to 1000 nM.

On to `N#Cc1cc(Nc2ccc3c(c2)OCCO3)cc(Nc2ccc3cc[nH]c3c2)n1` [Compound 144, 4-[(2,3-dihydro-1,4-benzodioxin-6-yl)amino]-6-[(1H-indol-6-yl)amino]pyridine-2-carbonitrile], for which the EC50 fell in the range of 1000 to 5000 nM.

With `N#Cc1cc(Nc2ccc3cc[nH]c3c2)cc(Nc2ccc3cc[nH]c3c2)n1` [Compound 145], the EC50 was 200 to 1000 nM.

Compound `Fc1cnc(Nc2ccc3cc[nH]c3c2)cc1Nc1ccc2cc[nH]c2c1` [Compound 146] displayed an EC50 of 1000 to 5000 nM. The figure for `N#Cc1cc(N2CCC(C(F)(F)F)CC2)cc(Nc2cc(Cl)c3cc[nH]c3c2)n1` [Compound 147, 6-[(4-chloro-1H-indol-6-yl)amino]-4-[4-(trifluoromethyl)piperidin-1-yl]pyridine-2-carbonitrile] is 200 to 1000 nM; for `N#Cc1cc(N2CCN(CC(F)(F)F)CC2)cc(Nc2cc(Cl)c3cc[nH]c3c2)n1` [Compound 148, 6-[(4-chloro-1H-indol-6-yl)amino]-4-[4-(2,2,2-trifluoroethyl)piperazin-1-yl]pyridine-2-carbonitrile] it is 1000 to 5000 nM. The figure for `N#Cc1cc(N2CCC(Cc3ccc(F)cc3)CC2)cc(Nc2cc(Cl)c3cc[nH]c3c2)n1` [Compound 149, 6-[(4-chloro-1H-indol-6-yl)amino]-4-{4-[(4-fluorophenyl)methyl]piperidin-1-yl}pyridine-2-carbonitrile] is 200 to 1000 nM; for `COc1cc(Nc2cc(C#N)nc(Nc3cc(Cl)c4cc[nH]c4c3)c2)cnc1Cl` [Compound 150, 6-[(4-chloro-1H-indol-6-yl)amino]-4-[(6-chloro-5-methoxypyridin-3-yl)amino]pyridine-2-carbonitrile] it is 200 to 1000 nM; for `N#Cc1cc(N2CCC(Cc3ccccc3)CC2)cc(Nc2cc(Cl)c3cc[nH]c3c2)n1` [Compound 151, 4-(4-benzylpiperidin-1-yl)-6-[(4-chloro-1H-indol-6-yl)amino]pyridine-2-carbonitrile] it is 200 to 1000 nM.

For the compound `CN1CCN(c2cc(C#N)nc(Nc3cc(Cl)c4cc[nH]c4c3)c2)CC1` [Compound 152, 6-[(4-chloro-1H-indol-6-yl)amino]-4-(4-methylpiperazin-1-yl)pyridine-2-carbonitrile], the EC50 lay in the range of 5000 to 100000 nM. The figure for `N#Cc1cc(Nc2ccc(OCC(F)(F)F)nc2)cc(Nc2cc(Cl)c3cc[nH]c3c2)n1` [Compound 153, 6-[(4-chloro-1H-indol-6-yl)amino]-4-{[6-(2,2,2-trifluoroethoxy)pyridin-3-yl]amino}pyridine 2-carbonitrile] is 40 to 200 nM.

The compound `N#Cc1cc(Nc2ccc(Cl)c(Cl)c2)cc(Nc2cc(Cl)c3cc[nH]c3c2)n1` [Compound 154, 6-[(4-chloro-1H-indol-6-yl)amino]-4-[(3,4-dichlorophenyl)amino]pyridine-2-carbonitrile] returned an EC50 of 40 to 200 nM.

In turn, `N#Cc1cc(N2CCC(Oc3ccccc3)CC2)cc(Nc2cc(Cl)c3cc[nH]c3c2)n1` [Compound 155, 6-[(4-chloro-1H-indol-6-yl)amino]-4-(4-phenoxypiperidin-1-yl)pyridine-2-carbonitrile] gave an EC50 of 200 to 1000 nM. The figure for `COC1CCN(c2cc(C#N)nc(Nc3cc(Cl)c4cc[nH]c4c3)c2)CC1` [Compound 156, 6-[(4-chloro-1H-indol-6-yl)amino]-4-(4-methoxypiperidin-1-yl)pyridine-2-carbonitrile] is 1000 to 5000 nM; for `CC(C)CN1CCN(c2cc(C#N)nc(Nc3cc(Cl)c4cc[nH]c4c3)c2)CC1` [Compound 157, 6-[(4-chloro-1H-indol-6-yl)amino]-4-[4-(2-methylpropyl)piperazin-1-yl]pyridine-2-carbonitrile] it is 1000 to 5000 nM; for `N#Cc1cc(Nc2cncc(F)c2)cc(Nc2cc(Cl)c3cc[nH]c3c2)n1` [Compound 158, 6-[(4-chloro-1H-indol-6-yl)amino]-4-[(5-fluoropyridin-3-yl)amino]pyridine-2-carbonitrile] it is 200 to 1000 nM. The figure for `N#Cc1cc(Nc2ccc(C(F)(F)F)c(F)c2)cc(Nc2cc(Cl)c3cc[nH]c3c2)n1` [Compound 159, 6-[(4-chloro-1H-indol-6-yl)amino]-4-{[3-fluoro-4-(trifluoromethyl)phenyl]amino}pyridine-2-carbonitrile] is 40 to 200 nM; for `CC1(C)CCN(c2cc(C#N)nc(Nc3cc(Cl)c4cc[nH]c4c3)c2)CC1` [Compound 160, 6-[(4-chloro-1H-indol-6-yl)amino]-4-(4,4-dimethylpiperidin-1-yl)pyridine-2-carbonitrile] it is 200 to 1000 nM; for `N#Cc1cc(N2CCOCC2)cc(Nc2cc(Cl)c3cc[nH]c3c2)n1` [Compound 161, 6-[(4-chloro-1H-indol-6-yl)amino]-4-(morpholin-4-yl)pyridine-2-carbonitrile] it is 1000 to 5000 nM. `CC(C)c1cncc(Nc2cc(C#N)nc(Nc3cc(Cl)c4cc[nH]c4c3)c2)c1` [Compound 162, 6-[(4-chloro-1H-indol-6-yl)amino]-4-{[5-(propan-2-yl)pyridin-3-yl]amino}pyridine-2-carbonitrile] showed an EC50 of 200 to 1000 nM.

On to `CC(C)(C)c1cncc(Nc2cc(C#N)nc(Nc3cc(Cl)c4cc[nH]c4c3)c2)c1` [Compound 163, 4-[(5-tert-butylpyridin-3-yl)amino]-6-[(4-chloro-1H-indol-6-yl)amino]pyridine-2-carbonitrile], for which the EC50 lay in the range of 200 to 1000 nM. The figure for `N#Cc1cc(Nc2cc(Cl)cc(Cl)c2)cc(Nc2cc(Cl)c3cc[nH]c3c2)n1` [Compound 164, 6-[(4-chloro-1H-indol-6-yl)amino]-4-[(3,5-dichlorophenyl)amino]pyridine-2-carbonitrile] is 200 to 1000 nM. The figure for `N#Cc1cc(Nc2ccc(Cl)c(F)c2)cc(Nc2cc(Cl)c3cc[nH]c3c2)n1` [Compound 165, 6-[(4-chloro-1H-indol-6-yl)amino]-4-[(4-chloro-3-fluorophenyl)amino]pyridine-2-carbonitrile] is 40 to 200 nM; for `COc1ccc(Nc2cc(C#N)nc(Nc3cc(Cl)c4cc[nH]c4c3)c2)cn1` [Compound 166, 6-[(4-chloro-1H-indol-6-yl)amino]-4-[(6-methoxypyridin-3-yl)amino]pyridine-2-carbonitrile] it is 200 to 1000 nM.

Broadly, the EC50 is the concentration that produces a half-maximal response. A lower EC50 goes with a more potent agent.

Values taken from patent US20240076285A1, “COMPOUNDS AND COMPOSITIONS FOR TREATING CONDITIONS ASSOCIATED WITH STING ACTIVITY” (IFM Due, Inc., priority 2020, published 2024).
